pIC50: −log10 of the molar value.
Molecular target: recombinant human SAE enzyme (Homo sapiens (Human), UniProt Q9UBT2)
Assay: SAE HTRF enzyme assay
Assay type: biochemical
Conditions: for pIC50: class symbols A/B/C; for IC50: SAE inhibition, class symbols, legend in nM
How it was run: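 Sumoylation of Ubc9-GST by SAE was followed at low ATP (0.5 μM), pH 7.5, 24° C. for 105 min. Product was detected by HTRF with antibody pairs against Flag and GST tags.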

[1] = SAE inhibition at compound concentration 0.111 μM

recombinant human SAE enzyme, sequence (Q9UBT2 whole entry): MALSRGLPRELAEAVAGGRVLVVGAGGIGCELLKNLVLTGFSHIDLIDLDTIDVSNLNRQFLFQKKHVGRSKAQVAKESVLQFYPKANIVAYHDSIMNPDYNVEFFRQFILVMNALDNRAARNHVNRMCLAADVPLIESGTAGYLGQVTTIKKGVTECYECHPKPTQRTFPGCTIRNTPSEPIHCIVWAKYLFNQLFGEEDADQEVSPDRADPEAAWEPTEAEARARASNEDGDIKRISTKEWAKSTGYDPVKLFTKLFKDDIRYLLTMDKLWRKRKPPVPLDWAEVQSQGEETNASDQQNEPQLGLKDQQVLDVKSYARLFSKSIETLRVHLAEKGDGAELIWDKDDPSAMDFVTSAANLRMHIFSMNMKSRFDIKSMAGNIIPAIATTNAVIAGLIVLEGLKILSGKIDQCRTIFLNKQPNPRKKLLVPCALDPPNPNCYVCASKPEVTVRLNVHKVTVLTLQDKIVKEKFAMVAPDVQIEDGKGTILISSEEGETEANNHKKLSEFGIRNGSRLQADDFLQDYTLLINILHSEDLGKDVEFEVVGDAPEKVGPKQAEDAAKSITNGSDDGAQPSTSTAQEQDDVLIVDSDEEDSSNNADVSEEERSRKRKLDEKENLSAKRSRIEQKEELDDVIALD
recombinant human SAE enzyme, sequence (Q9UBE0 whole entry partner): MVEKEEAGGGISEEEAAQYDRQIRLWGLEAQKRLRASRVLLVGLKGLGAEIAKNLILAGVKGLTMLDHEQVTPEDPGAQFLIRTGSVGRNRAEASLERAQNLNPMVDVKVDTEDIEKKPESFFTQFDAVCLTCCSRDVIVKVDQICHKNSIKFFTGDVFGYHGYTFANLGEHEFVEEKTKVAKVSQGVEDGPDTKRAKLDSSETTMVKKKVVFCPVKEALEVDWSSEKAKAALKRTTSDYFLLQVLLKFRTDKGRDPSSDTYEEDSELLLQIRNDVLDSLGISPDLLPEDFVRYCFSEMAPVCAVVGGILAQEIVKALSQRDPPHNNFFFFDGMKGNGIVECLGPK

Row | Structure (SMILES) | Percent Inhibition (Concentration 0.111 μM) | pIC50 | Percent Inhibition [1] | IC50
1 | NS(=O)(=O)OC[C@H]1C[C@@H](Nc2ncncc2C(=O)c2cc(C3NCCc4ccc(Cl)cc43)cs2)C[C@@H]1O (single isomer, unassigned) [I-274a, [(1R,2S,4R)-4-{[5-({4-[(1R)-7-chloro-1,2,3,4-tetrahydroisoquinolin-1-yl]-2-thienyl}carbonyl)pyrimidin-4-yl]amino}-2-hydroxycyclopentyl]methyl sulfamate or [(1R,2S,4R)-4-{[5-({4-[(1S)-7-chloro-1,2,3,4-tetrahydroisoquinolin-1-yl]-2-thienyl}carbonyl)pyrimidin-4-yl]amino}-2-hydroxycyclopentyl]methyl sulfamate] | 98 | > 8.00 | – | –
2 | NS(=O)(=O)OC[C@H]1C[C@@H](Nc2ncncc2C(=O)c2cc(C3NCCc4ccc(Cl)cc43)cs2)C[C@@H]1O (single isomer, unassigned) [I-274b, [(1R,2S,4R)-4-{[5-({4-[(1R)-7-chloro-1,2,3,4-tetrahydroisoquinolin-1-yl]-2-thienyl}carbonyl)pyrimidin-4-yl]amino}-2-hydroxycyclopentyl]methyl sulfamate or [(1R,2S,4R)-4-{[5-({4-[(1S)-7-chloro-1,2,3,4-tetrahydroisoquinolin-1-yl]-2-thienyl}carbonyl)pyrimidin-4-yl]amino}-2-hydroxycyclopentyl]methyl sulfamate] | 81 | 7.00 to 8.00 | – | –
3 | NS(=O)(=O)OC[C@H]1C[C@@H](Nc2ncncc2C(=O)c2cc([C@@H]3OCCc4ccc(Cl)nc43)c(Cl)s2)C[C@@H]1O (single isomer, unassigned) [I-276a, [(1R,2S,4R)-4-{[5-({5-chloro-4-[(8S)-2-chloro-5,8-dihydro-6H-pyrano[3,4-b]pyridin-8-yl]-2-thienyl}carbonyl)pyrimidin-4-yl]amino}-2-hydroxycyclopentyl]methyl sulfamate or [(1R,2S,4R)-4-{[5-({5-chloro-4-[(8R)-2-chloro-5,8-dihydro-6H-pyrano[3,4-b]pyridin-8-yl]-2-thienyl}carbonyl)pyrimidin-4-yl]amino}-2-hydroxycyclopentyl]methyl sulfamate] | 28 | 6.00 to 7.00 | – | –
4 | NS(=O)(=O)OC[C@H]1C[C@@H](Nc2ncncc2C(=O)c2cc([C@@H]3OCCc4ccc(Cl)nc43)c(Cl)s2)C[C@@H]1O (single isomer, unassigned) [I-276b, [(1R,2S,4R)-4-{[5-({5-chloro-4-[(8S)-2-chloro-5,8-dihydro-6H-pyrano[3,4-b]pyridin-8-yl]-2-thienyl}carbonyl)pyrimidin-4-yl]amino}-2-hydroxycyclopentyl]methyl sulfamate or [(1R,2S,4R)-4-{[5-({5-chloro-4-[(8R)-2-chloro-5,8-dihydro-6H-pyrano[3,4-b]pyridin-8-yl]-2-thienyl}carbonyl)pyrimidin-4-yl]amino}-2-hydroxycyclopentyl]methyl sulfamate] | 101 | > 8.00 | – | –
5 | Cc1sc(C(=O)c2cncnc2N[C@@H]2C[C@H](COS(N)(=O)=O)[C@@H](O)C2)cc1[C@@H]1OCCc2ccc(C3CC3)cc21 (single isomer, unassigned) [I-277a, [(1R,2S,4R)-4-{[5-({4-[(1R)-7-cyclopropyl-3,4-dihydro-1H-isochromen-1-yl]-5-methyl-2-thienyl}carbonyl)pyrimidin-4-yl]amino}-2-hydroxycyclopentyl]methyl sulfamate or [(1R,2S,4R)-4-{[5-({4-[(1S)-7-cyclopropyl-3,4-dihydro-1H-isochromen-1-yl]-5-methyl-2-thienyl}carbonyl)pyrimidin-4-yl]amino}-2-hydroxycyclopentyl]methyl sulfamate] | 100 | > 8.00 | – | –
6 | Cc1sc(C(=O)c2cncnc2N[C@@H]2C[C@H](COS(N)(=O)=O)[C@@H](O)C2)cc1[C@@H]1OCCc2ccc(C3CC3)cc21 (single isomer, unassigned) [I-277b, [(1R,2S,4R)-4-{[5-({4-[(1R)-7-cyclopropyl-3,4-dihydro-1H-isochromen-1-yl]-5-methyl-2-thienyl}carbonyl)pyrimidin-4-yl]amino}-2-hydroxycyclopentyl]methyl sulfamate or [(1R,2S,4R)-4-{[5-({4-[(1S)-7-cyclopropyl-3,4-dihydro-1H-isochromen-1-yl]-5-methyl-2-thienyl}carbonyl)pyrimidin-4-yl]amino}-2-hydroxycyclopentyl]methyl sulfamate] | 81 | 7.00 to 8.00 | – | –
7 | NS(=O)(=O)OC[C@H]1C[C@@H](Nc2ncncc2C(=O)c2cc(C3SCCc4ccc(Cl)cc43)cs2)[C@H](O)[C@@H]1O (single isomer, unassigned) [I-278a, [(1R,2R,3S,4R)-4-{[5-({4-[(1R)-7-chloro-3,4-dihydro-1H-isothiochromen-1-yl]-2-thienyl}carbonyl)pyrimidin-4-yl]amino}-2,3-dihydroxycyclopentyl]methyl sulfamate or [(1R,2R,3S,4R)-4-{[5-({4-[(1S)-7-chloro-3,4-dihydro-1H-isothiochromen-1-yl]-2-thienyl}carbonyl)pyrimidin-4-yl]amino}-2,3-dihydroxycyclopentyl]methyl sulfamate] | 77 | 7.00 to 8.00 | – | –
8 | NS(=O)(=O)OC[C@H]1C[C@@H](Nc2ncncc2C(=O)c2cc(C3SCCc4ccc(Cl)cc43)cs2)[C@H](O)[C@@H]1O (single isomer, unassigned) [I-278b, [(1R,2R,3S,4R)-4-{[5-({4-[(1R)-7-chloro-3,4-dihydro-1H-isothiochromen-1-yl]-2-thienyl}carbonyl)pyrimidin-4-yl]amino}-2,3-dihydroxycyclopentyl]methyl sulfamate or [(1R,2R,3S,4R)-4-{[5-({4-[(1S)-7-chloro-3,4-dihydro-1H-isothiochromen-1-yl]-2-thienyl}carbonyl)pyrimidin-4-yl]amino}-2,3-dihydroxycyclopentyl]methyl sulfamate] | 99 | > 8.00 | – | –
9 | NS(=O)(=O)OC[C@H]1C[C@@H](Nc2ncncc2C(=O)c2cc([C@H]3NCCc4ccccc43)c(Cl)s2)C[C@@H]1O (single isomer, unassigned) [I-279a, [(1R,2S,4R)-4-{[5-({5-chloro-4-[(1S)-1,2,3,4-tetrahydroisoquinolin-1-yl]-2-thienyl}carbonyl)pyrimidin-4-yl]amino}-2-hydroxycyclopentyl]methyl sulfamate or [(1R,2S,4R)-4-{[5-({5-chloro-4-[(1R)-1,2,3,4-tetrahydroisoquinolin-1-yl]-2-thienyl}carbonyl)pyrimidin-4-yl]amino}-2-hydroxycyclopentyl]methyl sulfamate] | 100 | > 8.00 | – | –
10 | NS(=O)(=O)OC[C@H]1C[C@@H](Nc2ncncc2C(=O)c2cc([C@H]3NCCc4ccccc43)c(Cl)s2)C[C@@H]1O (single isomer, unassigned) [I-279b, [(1R,2S,4R)-4-{[5-({5-chloro-4-[(1S)-1,2,3,4-tetrahydroisoquinolin-1-yl]-2-thienyl}carbonyl)pyrimidin-4-yl]amino}-2-hydroxycyclopentyl]methyl sulfamate or [(1R,2S,4R)-4-{[5-({5-chloro-4-[(1R)-1,2,3,4-tetrahydroisoquinolin-1-yl]-2-thienyl}carbonyl)pyrimidin-4-yl]amino}-2-hydroxycyclopentyl]methyl sulfamate] | 84 | 7.00 to 8.00 | – | –
11 | Cc1sc(C(=O)c2cncnc2N[C@@H]2C[C@H](COS(N)(=O)=O)[C@@H](O)C2)cc1[C@@H]1OCOc2ccccc21 (single isomer, unassigned) [I-280a, [(1R,2S,4R)-4-{[5-({4-[(4R)-4H-1,3-benzodioxin-4-yl]-5-methyl-2-thienyl}carbonyl)pyrimidin-4-yl]amino}-2-hydroxycyclopentyl]methyl sulfamate or [(1R,2S,4R)-4-{[5-({4-[(4S)-4H-1,3-benzodioxin-4-yl]-5-methyl-2-thienyl}carbonyl)pyrimidin-4-yl]amino}-2-hydroxycyclopentyl]methyl sulfamate] | – | – | 75% | 10 to 100 nM
12 | Cc1sc(C(=O)c2cncnc2N[C@@H]2C[C@H](COS(N)(=O)=O)[C@@H](O)C2)cc1[C@@H]1OCOc2ccccc21 (single isomer, unassigned) [I-280b, [(1R,2S,4R)-4-{[5-({4-[(4R)-4H-1,3-benzodioxin-4-yl]-5-methyl-2-thienyl}carbonyl)pyrimidin-4-yl]amino}-2-hydroxycyclopentyl]methyl sulfamate or [(1R,2S,4R)-4-{[5-({4-[(4S)-4H-1,3-benzodioxin-4-yl]-5-methyl-2-thienyl}carbonyl)pyrimidin-4-yl]amino}-2-hydroxycyclopentyl]methyl sulfamate] | – | – | 100% | < 10 nM
13 | NS(=O)(=O)OC[C@H]1C[C@@H](Nc2ncncc2C(=O)c2cc([C@@H]3OCC4(CC4)c4ccccc43)cs2)C[C@@H]1O (single isomer, unassigned) [I-281a, [(1R,2S,4R)-2-hydroxy-4-{[5-({4-[(1′R)-1′H-spiro[cyclopropane-1,4′-isochromen]-1′-yl]-2-thienyl}carbonyl)pyrimidin-4-yl]amino}cyclopentyl]methyl sulfamate or [(1R,2S,4R)-2-hydroxy-4-{[5-({4-[(1′S)-1′H-spiro[cyclopropane-1,4′-isochromen]-1′-yl]-2-thienyl}carbonyl)pyrimidin-4-yl]amino}cyclopentyl]methyl sulfamate] | – | – | 74% | 10 to 100 nM
14 | NS(=O)(=O)OC[C@H]1C[C@@H](Nc2ncncc2C(=O)c2cc([C@@H]3OCC4(CC4)c4ccccc43)cs2)C[C@@H]1O (single isomer, unassigned) [I-281b, [(1R,2S,4R)-2-hydroxy-4-{[5-({4-[(1′R)-1′H-spiro[cyclopropane-1,4′-isochromen]-1′-yl]-2-thienyl}carbonyl)pyrimidin-4-yl]amino}cyclopentyl]methyl sulfamate or [(1R,2S,4R)-2-hydroxy-4-{[5-({4-[(1′S)-1′H-spiro[cyclopropane-1,4′-isochromen]-1′-yl]-2-thienyl}carbonyl)pyrimidin-4-yl]amino}cyclopentyl]methyl sulfamate] | – | – | 99% | < 10 nM

— US10780090B2, “Heteroaryl compounds useful as inhibitors of SUMO activating enzyme” (Millennium Pharmaceuticals, Inc., priority 2014, dated 2020)
